Source: article PMC3908770 (Journal of medicinal chemistry, 2013)
Entries after “also recorded” stand apart in the source; their conditions may differ. Read-outs that look alike come from different tables or passages of the source.

Key:
[1] = cited from earlier work; for Seizure activity / liability in vivo: rodents
rat mGlu5 [2] = target: T1, rat mGlu5 (Rattus norvegicus, UniProt P31424); settings: cited from earlier work
[3] = Cmax minimum active dose AHL versus Cmax minimum adverse effect dose; cited from earlier work
[4] = tested on: Schaffer collateral – CA1 (SC-CA1) synapse; settings: cited from earlier work
CA3 pyramidal neurons = settings: hippocampal preparations; prior studies; cited from earlier work
[5] = tested on: Schaffer collateral – CA1 (SC-CA1) synapse; experiment: Long-term depression; settings: compound on its own, rat hippocampus
[6] = Amphetamine induced hyperlocomotion, in vivo model of psychosis; settings: high dose, preliminary
rat mGlu5 [7] = target: T1, rat mGlu5; settings: operational model of allosterism
[8] = tested on: panel of 68 GPCRs, ion channels and transporters; experiment: Off-target panel screen; assay type: binding; settings: 10 µM, 68 targets
rat mGlu5 [9] = target: T1, rat mGlu5; settings: increasing concentrations
mGlu5 S808A = mGlu5 S808A (Rattus norvegicus, UniProt P31424, S808A); experiment: Progressive fold-shift at mGlu5 point mutant, operational model of allosterism
[10] = cited from earlier work
mGlu5 W784A = mGlu5 W784A (Rattus norvegicus, UniProt P31424, W784A); experiment: Progressive fold-shift at mGlu5 point mutant, operational model of allosterism
[11] = human; cited from earlier work
[12] = rat; cited from earlier work

T1 sequence (P31424 21-1203): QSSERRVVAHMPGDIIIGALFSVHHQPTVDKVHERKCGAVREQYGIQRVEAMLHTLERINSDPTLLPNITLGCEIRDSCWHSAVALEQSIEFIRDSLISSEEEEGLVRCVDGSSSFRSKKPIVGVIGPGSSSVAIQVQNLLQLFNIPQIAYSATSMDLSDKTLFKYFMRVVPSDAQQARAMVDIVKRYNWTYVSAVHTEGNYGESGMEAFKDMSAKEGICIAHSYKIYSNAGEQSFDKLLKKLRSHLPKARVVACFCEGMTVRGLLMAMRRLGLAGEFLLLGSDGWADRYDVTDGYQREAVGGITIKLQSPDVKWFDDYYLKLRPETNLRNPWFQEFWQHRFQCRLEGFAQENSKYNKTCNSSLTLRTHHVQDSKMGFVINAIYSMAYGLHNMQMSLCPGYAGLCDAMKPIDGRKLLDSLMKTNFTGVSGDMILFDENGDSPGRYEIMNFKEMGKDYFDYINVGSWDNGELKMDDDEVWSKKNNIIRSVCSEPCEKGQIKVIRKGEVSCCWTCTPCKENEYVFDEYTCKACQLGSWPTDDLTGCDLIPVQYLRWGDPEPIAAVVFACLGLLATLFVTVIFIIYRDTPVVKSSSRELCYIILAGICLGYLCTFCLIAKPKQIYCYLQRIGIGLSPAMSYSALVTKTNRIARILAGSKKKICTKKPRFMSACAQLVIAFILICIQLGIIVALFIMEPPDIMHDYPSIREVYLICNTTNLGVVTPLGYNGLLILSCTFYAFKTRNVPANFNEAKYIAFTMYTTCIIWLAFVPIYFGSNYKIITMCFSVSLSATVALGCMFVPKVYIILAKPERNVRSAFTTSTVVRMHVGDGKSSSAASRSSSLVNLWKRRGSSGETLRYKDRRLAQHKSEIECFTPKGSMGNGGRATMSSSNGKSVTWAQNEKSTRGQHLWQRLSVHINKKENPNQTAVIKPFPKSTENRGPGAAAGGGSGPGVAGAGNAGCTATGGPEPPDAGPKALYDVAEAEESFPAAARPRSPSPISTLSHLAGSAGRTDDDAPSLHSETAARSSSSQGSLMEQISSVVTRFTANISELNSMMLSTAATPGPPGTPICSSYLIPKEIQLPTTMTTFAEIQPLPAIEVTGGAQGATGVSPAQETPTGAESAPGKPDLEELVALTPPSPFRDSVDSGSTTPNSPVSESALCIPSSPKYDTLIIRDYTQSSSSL
Chain of mGlu5 S808A (P31424 21-1203 S808A): as the sequence (P31424 21-1203) above, with S788A counted along it
Chain of mGlu5 W784A (P31424 21-1203 W784A): as the sequence (P31424 21-1203) above, with W764A counted along it

O=C(c1ccc(C#Cc2cccc(F)c2)nc1)N1CCC(O)CC1 [Compound 20]
Seizure activity / liability in vivo [1]: did not display a seizure liability
Allosteric agonism in mGlu5 cell line with low receptor density (rat mGlu5 [2]): devoid of agonism

C[C@@H]1CC[C@H](c2noc(-c3ccc(F)cn3)n2)CN1C(=O)c1ccccc1 [Compound 5PAM523]
Therapeutic index [3]: 2 fold

C[C@@H](NC(=O)c1ccc(C#Cc2cccc(F)c2)cn1)C(C)(C)O [Compound 19, (R)-5-((3-Fluorophenyl)ethynyl)-N-(3-hydroxy-3-methylbutan-2-yl)picolinamide]
Seizure activity / liability in vivo [1]: causes seizure activity
Induction of LTD at SC-CA1 synapse [4]: induces LTD
Epileptiform activity in CA3 pyramidal neurons (CA3 pyramidal neurons): induction of epileptiform activity
Allosteric agonism in mGlu5 cell line with low receptor density (rat mGlu5 [2]): ago-PAM activity

CC1(NC(=O)c2ccc(C#Cc3cccc(F)c3)cn2)COC1 [Compound 38t, 5-((3-Fluorophenyl)ethynyl)-N-(3-methyloxetan-3-yl)picolinamide]
Induction of LTD at SC-CA1 synapse [5]: no effect; also recorded: does not induce LTD
Behavioral disturbances [6]: no overt behavioral disturbances
Reversal of amphetamine induced hyperlocomotion ([6]; data not shown): robust reversal
Efficacy cooperativity factor (logβ) between glutamate and modulator (rat mGlu5 [7]): 0.34
Predicted affinity (log value) (rat mGlu5 [7]; progressive fold-shift): −6.81
Off target activity [8]: no significant off target activity
Inhibition of [^3H]methoxyPEPy binding (rat mGlu5 [9]): complete inhibition
Effect of S808A mutation (mGlu5 S808A): NAM switch

O=C(NC1CCC1)c1ccc(C#Cc2cccc(F)c2)nc1 [Compound 26]
Plasma protein binding [10]: 98.9%

O=C1c2ccc(F)cc2CCC2CC[C@@H](c3noc(-c4ccc(F)cn4)n3)CN12 (stereo partly shown) [Compound 5PAM916]
Therapeutic index [3]: 18 fold

C[C@@H](NC(=O)c1ccc(C#Cc2ccccn2)cn1)C(C)(C)O [Compound 31i, (R)-N-(3-Hydroxy-3-methylbutan-2-yl)-5-(pyridin-2-ylethynyl)picolinamide]
Effect of W784A mutation (mGlu5 W784A): gain in allosteric agonist activity

O=C(N[C@H]1C[C@H](O)C1)c1ccc(C#Cc2cccc(F)c2)cn1 [Compound 22]
Agonist activity in mGlu5 low-expressing cell line (rat mGlu5 [2]): significant ago-PAM activity

O=C(NC1CCC1)c1ccc(C#Cc2cccc(F)c2)cn1 [Compound 21]
Seizure liability in animal models [1]: possesses a seizure liability
Plasma protein binding [11]: > 99 % bound
fu plasma [11]: < 1%
Plasma protein binding [12]: > 99 % bound
fu plasma [12]: < 1%
Agonist activity in mGlu5 low-expressing cell line (rat mGlu5 [2]): demonstrates agonist activity
